Assay results taken from US20080234381A1, “Novel Trifluoromethoxy-Substituted Aryl Anilides” (Novo Nordisk A/S, priority 2005, published 2008).

Row | melting point | Structure (SMILES)
1 | 169 °C | N#Cc1ccc(NC(=O)c2c(O)ccc3ccccc23)c(OC(F)(F)F)c1 [Example 2, 2-Hydroxy-naphthalene-1-carboxylic acid(4-cyano-2-trifluoromethoxy-phenyl)-amide]
2 | 248 °C | N#Cc1ccc(NC(=O)c2cc3ccccc3cc2O)c(OC(F)(F)F)c1 [Example 3, 3-Hydroxy-naphthalene-2-carboxylic acid(4-cyano-2-trifluoromethoxy-phenyl)-amide]
3 | 178 °C | N#Cc1ccc(NC(=O)c2ccc3ccccc3c2O)c(OC(F)(F)F)c1 [Example 1, 1-Hydroxy-naphthalene-2-carboxylic acid(4-cyano-2-trifluoromethoxy-phenyl)-amide]
